Laboratory results: patent publication US20030186464A1, “Surface plasmon resonance methods” (priority 2002, published 2003)
Residue numbers refer to the chain shown, from its start.

Experiments:
IL1R-I13C = molecular target: T1, IL1R-I13C (Homo sapiens, UniProt P14778, I30C); experiment: SPR ranking of reversible covalent (disulfide) bond formation with immobilized protein-thiolate (Examples 5-6); assay type: binding; settings: disulfide compound 100 μM, reductant 500 μM; fraction of protein-thiolate on the chip covalently bound
T1 construct: soluble interleukin-1 receptor, type 1 having a mutation to cysteine; made in house; host or cells: E. coli or baculovirus-infected insect cells (TN-5B1-4, High Five)
T1 sequence (P14778 18-336 I30C): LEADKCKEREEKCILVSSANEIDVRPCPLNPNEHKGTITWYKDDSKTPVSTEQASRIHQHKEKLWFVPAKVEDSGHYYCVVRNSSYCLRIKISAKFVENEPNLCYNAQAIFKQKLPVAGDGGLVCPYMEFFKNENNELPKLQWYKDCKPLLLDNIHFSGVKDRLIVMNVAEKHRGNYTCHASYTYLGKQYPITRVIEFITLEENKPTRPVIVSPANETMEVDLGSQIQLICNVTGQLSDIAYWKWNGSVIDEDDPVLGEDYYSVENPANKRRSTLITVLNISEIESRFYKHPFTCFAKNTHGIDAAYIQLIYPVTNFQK
Protocol: (§1) A CM5 sensor chip (Biacore-BR-1000-14) is docked in a Biacore 2000 SPR device, and the chip is normalized using a standard Biacore protocol with 70% glycerol. The chip is equilibrated in PBS for approximately 1 hr at a 20 μL/min flow rate. The dextran surface of the chip is activated through an NHS/EDC coupling. This is done using an amine coupling kit (Biacore—BR-100-50) containing N-hydroxysuccinimide (NHS 11.5 mg/mL) and N-ethyl-N′-(3-dimethylaminopropyl) carbodiimide hydrochloride (EDC 75 mg/mL). The two reagents are mixed in a 1:1 ratio and then 35 μL of the mixture are injected at 5 μL/min. The chip is activated one flow cell at a time, and that flow cell is subsequently labeled with protein.
(§2) Protein having at least one cysteine is expressed in E. coli or baculovirus-infected insect cells (TN-5B1-4, High Five) and purified using standard procedures. This protein-thiolate is treated with 10 mM βME overnight to reduce the surface cysteine. The βME is removed and the protein-thiolate is placed in 100 mM MES Buffer pH 5.75 (Nap-5 column, Pierce). The protein-thiolate is then concentrated to 100 μM using a Millipore-UFV5BCCOO 5K NMWL membrane, 0.5 mL centrifugal filter and tube.
(§3) A sensorgram is then run over the activated flow cell at 2 μL/min of PBS. The protein-thiolate solution is then injected at 2 μL/min for 10 min. After injection one measures the change in RUs by marking the RUs at t=0 and t final and subtracting them. This subtraction gives the total RU change that is related to the total mass of protein successfully coupled to the CM5 surface. This value will later be used to determine stoichiometry of binding. This procedure is then repeated with various cysteine mutants that are immobilized on the adjacent cells. The sensorgram is then altered to flow across all 4 cells on the CM5 chip at 5,L/min PBS. A solution of 1 M ethanolamine hydrochloride-NaOH pH 8.5 (Amine coupling kit, Biacore—BR-100-50) is injected at 5 μL/min for 7 min. The chip is equilibrated overnight in 100 mM Tris pH 8+0.05% azide+1% DMSO at 20 μL/min.
(§4) Compounds are synthesized with a reactive disulfide linker (see, for example compound 2t in Example 2). From previous “tethering” experiments compounds that preferentially bind and form a covalent bond with specific cysteine mutants at the active sites of proteins are chosen for these SPR experiments. The compounds are known to form this covalent attachment at relatively high levels of reductant [βME (2-mercaptoethanol, Sigma)], indicating a […] noncovalent binding interaction.
(§5) Dilutions series of the compounds are typically performed to produce seven solutions with compound concentrations of 50 mM, 25 mM, 12.5 mM, 6.25 mM, 3.12 mM, 1.56 mM, and 0.78 mM in DMSO, with a final eighth point as a DMSO only baseline. The compounds are then diluted into 100 mM Tris pH 8+0.05% azide+500 μM βME, to final compound concentrations of 500 μM, 250 μM, 125 μM, 62.5 μM, 31.2 μM, 15.6 μM, and 7.8 μM. The compound solutions are injected from lowest concentration to highest at 2 μL/min for 20 min. The SPR software method includes a 1 min wash before injection, the injection and then a 10 min wash after the injection. This particular protocol employs a regeneration step to reduce off the compound that is covalently bound before the next injection. The regeneration is accomplished by injecting 10 mM βME at 2 μL/min for 20 min.
(§6) These dilution series are analyzed by BIAevaluation software version 3.0. Sensorgrams are plotted for compound binding to cells of the chip labeled with protein-thiolate. The sensorgrams are modified by subtracting the sensorgrams for the appropriate compound dilutions over cell 1 (a blank cell). This subtraction step removes any RU changes that might occur due to nonspecific interactions between the compound and the chip itself or refractive changes in the buffer. Finally, the eight sensorgrams produced from the compound dilution series are zeroed at the average of their starting RUs. […]

IL1R-I29C = molecular target: T2, IL1R-I29C (Homo sapiens, UniProt P14778); experiment: as above; assay type: binding; settings: disulfide compound 100 μM, reductant 500 μM; fraction of protein-thiolate on the chip covalently bound
T2 construct: soluble interleukin-1 receptor, type 1 having a mutation to cysteine; made in house; host or cells: E. coli or baculovirus-infected insect cells (TN-5B1-4, High Five)
T2 sequence (P14778 18-336 E146C): T1 sequence (P14778 18-336 I30C) with C13I, E129C
Protocol: as §1, §2, §3, §4, §5, §6

SMILES | Fraction bound IL1R-I13C (IL1R-I13C) | Fraction bound IL1R-I29C (IL1R-I29C)
COc1cc(C(=O)N2CCCC(C(=O)NCCSSCCN)C2)ccc1O (centres unmarked) [Compound 15t] | 0.0 | 0.2
CC(=O)c1ccccc1NC(=O)c1ccc(NC(=O)CSSCCN)cc1 [Compound 12t] | 0.5 | 0.0
COC(=O)c1cccc(NC(=O)c2ccc(NC(=O)CSSCCN)cc2)c1 [Compound 13t] | 0.0 | 0.0
NCCSSCCC(=O)NC(c1ccccc1)c1cc2ccccc2cn1 (centres unmarked) [Compound 14t] | 0.0 | 0.6
